Patent US10822376B2, “Biologically active peptides” (Baxalta Incorporated, priority 2008, dated 2020)
Where a SMILES comes first, the peptide text is derived from it. Bridges are numbered along the chain shown (N, C = ends). Roman numbers before positions name the chains, in order. [ ]: non-standard residue; d: D form.

Legend:
FVIII inhibited plasma = assay: Defined Dual-Pathway Thrombin Generation Assay (DDPTGA, reagent C high), FVIII inhibited plasma; format: biochemical, human; details: for Peak IIa FEIBA EU / Peak IIa FVIIa EU / Peak Time FEIBA EU / Peak Time FVIIa EU: FVIII inhibited plasma; for Activity in the Defined Dual-Pathway Thrombin Generation Assay: summary, FVIII inhibited or deficient plasma
Source text: (§1) The intrinsic pathway of thrombin generation may be assayed in a thrombin generation assay by including FXIa and phospholipids. In such an assay, which is similar to an activated partial thromboplastin time (aPTT) test, thrombin generation is solely directed through the intrinsic pathway, and is FVIII dependent. A suitable assay is the Defined Intrinsic Thrombin Generation Assay described below. Alternatively, by employing low concentrations of TF and phospholipids instead of FXIa and phospholipids, thrombin is generated by both the extrinsic (tissue factor) and the intrinsic pathways. This form of the thrombin generation assay is the more physiologic one, as both thrombin generation pathways are involved; it is partially FVIII dependent. A suitable assay is the Defined Dual-Pathway Thrombin Generation Assay.
(§2) Preferably, Reagent C high is used.
(§3) Tissue factor dependency of peak thrombin generation and thrombin peak time was characterised in a composition containing a fixed concentration of phospholipid (namely 3.2 μM). Phospholipid dependency was characterised in a composition containing a fixed concentration of tissue factor (namely 7.2 μM). Peak time (time to peak thrombin generation) was dependent on the concentration of phospholipid or tissue factor. The final version of this assay is as described in the specific description, in which 10 μl reagent C high containing (32 μM phospholipid and 71.6 μM tissue factor) is used in a total volume of 100 μl.
(§4) Further studies were conducted using 3.2 μM phospholipid and 7.2 μM tissue factor in FVIII deficient or inhibited plasma, to characterise the effect on peak thrombin generation and thrombin peak time of various coagulation factor preparations. These studies provided a basis from which to compare the efficacy of the compounds in the assay. Briefly, rFVIII (Recombinate® FVIII from Baxter) was tested at 0, 5, 10, 20, 40 and 80 mU/ml in FVIII deficient plasma. FEIBA was tested at 0, 8, 16, 31, 63 and 125 mU/ml in FVIII inhibited plasma. FVIIa was tested at 0, 0.1, 0.4, 1.6, 6.3 and 25 nM in FVIII inhibited plasma. […] Peak thrombin increased and both the lag time and the thrombin peak time decrease.

FVIII deficient plasma = assay: Defined Dual-Pathway Thrombin Generation Assay (DDPTGA, reagent C high), FVIII deficient plasma; format: biochemical, human; details: for Peak IIa FVIII EU / Peak Time FVIII EU: FVIII deficient plasma; for Effect on both peak time and peak IIa of thrombin generation: DDPTGA, comment on Table 10
Source text: as §1, §2, §3, §4

[1] = tested on: human FVIII inhibited plasma; assay: Defined Intrinsic Thrombin Generation Assay (DITGA, triggered by FXIa and phospholipids); format: biochemical
Source text: as §1
The Defined Intrinsic Thrombin Generation Assay is performed as follows. FVIII activity of human plasma is inhibited by incubating (2 hours, 37° C.) 40 μl of human normal plasma with 10 μl heat inactivated anti-human FVIII plasma raised in goat (600 BU/ml, 6 hours incubated at 56° C.). […] Instead of FVIII-inhibited plasma, FVIII inhibitor patient plasma or several depleted plasmas can be used. The micro-plate is immediately put into a GENios Plus (Tecan) or Safire 2 (Tecan) fluorescence reader and the fluorescence signal (ex 340 nm/em 440 nm) is followed kinetically by reading the plate every 21 seconds.
For calculation of activity equivalent units experiments are performed with dilutions of Factor Eight Inhibitor Bypassing Agent (FEIBA, Baxter AG), Immunate (human FVIII, purified plasma derived) reference standard (Baxter AG) or Recombinate standard (human FVIII, purified recombinant, Baxter AG). A linear fit of the logarithm of FEIBA (FVIII) concentration plotted against thrombin generation time at peak thrombin results in a standard curve. With this curve FEIBA (FVIII) equivalent activity is calculated for a defined peptide concentration. […] Thus, where a concentration of 100 μM is given, the actual concentration in the final assay volume in 40 μM.
Compounds were screened using the “Defined intrinsic thrombin generation assay” in which thrombin generation was quantified in vitro in FVIII-inhibited human plasma in the presence of Factor XIa and phospholipid vesicles. Further compounds were screened in the above assay, and in the “Defined dual-pathway thrombin generation assay” using tissue factor and phospholipids instead of Factor XIa and phospholipids, as described in the specific description.
Various concentrations of each peptide were tested in the defined intrinsic thrombin generation assay using human FVIII inhibited plasma.

Row | Compound | Peak IIa FEIBA EU (FVIII inhibited plasma; peptide 50 μM) | Peak IIa FVIIa EU (FVIII inhibited plasma; peptide 50 μM) | Peak Time FEIBA EU (FVIII inhibited plasma; peptide 50 μM) | Peak Time FVIIa EU (FVIII inhibited plasma; peptide 50 μM) | Peak IIa FEIBA EU (FVIII inhibited plasma; peptide 100 μM) | Peak IIa FVIIa EU (FVIII inhibited plasma; peptide 100 μM) | Peak Time FEIBA EU (FVIII inhibited plasma; peptide 100 μM) | Peak Time FVIIa EU (FVIII inhibited plasma; peptide 100 μM) | Activity in the Defined Dual-Pathway Thrombin Generation Assay (FVIII inhibited plasma) | Peak IIa FVIII EU (FVIII deficient plasma; peptide 50 μM) | Peak Time FVIII EU (FVIII deficient plasma; peptide 50 μM) | Peak IIa FVIII EU (FVIII deficient plasma; peptide 100 μM) | Peak Time FVIII EU (FVIII deficient plasma; peptide 100 μM) | Effect on both peak time and peak IIa of thrombin generation (FVIII deficient plasma) | also measured
1 | PEG5000-ERMEFDVWDLYFEIVW-NH2 [Peptide A18] | BLS (BLS = below lowest standard.) | BLS (BLS = below lowest standard.) | BLS (BLS = below lowest standard.) | BLS (BLS = below lowest standard.) | BLS (BLS = below lowest standard.) | BLS (BLS = below lowest standard.) | BLS (BLS = below lowest standard.) | BLS (BLS = below lowest standard.) | possess activity | BLS (BLS = below lowest standard.) | BLS (BLS = below lowest standard.) | BLS (BLS = below lowest standard.) | 17.1 mU/ml |  | 
2 | Ac-WDLYFEISW-ttds-E [Peptide A15] | BLS (BLS = below lowest standard.) | BLS (BLS = below lowest standard.) | BLS (BLS = below lowest standard.) | BLS (BLS = below lowest standard.) | 13.6 mU/ml | 0.7 nM | BLS (BLS = below lowest standard.) | BLS (BLS = below lowest standard.) | possess activity | 4.3 mU/ml | 14.4 mU/ml | 5.0 mU/ml | 12.7 mU/ml | positively affected | 
3 | Ac-WSLYFEIVWE [Peptide A14] | BLS (BLS = below lowest standard.) | BLS (BLS = below lowest standard.) | BLS (BLS = below lowest standard.) | BLS (BLS = below lowest standard.) | BLS (BLS = below lowest standard.) | BLS (BLS = below lowest standard.) | BLS (BLS = below lowest standard.) | BLS (BLS = below lowest standard.) |  | BLS (BLS = below lowest standard.) | BLS (BLS = below lowest standard.) | BLS (BLS = below lowest standard.) | BLS (BLS = below lowest standard.) |  | 
4 | CC[C@@H](C)[C@@H](NC(=O)[C@@H](CSSC[C@@H](NC(C)=O)C(=O)N[C@@H](C(=O)N[C@H](CCSC)C(=O)N[C@H](Cc1ccccc1)C(=O)N[C@H](Cc1c[nH]c2ccccc12)C(=O)N[C@H](Cc1ccc(O)cc1)C(=O)N[C@H](CC(=O)O)C(=O)N[C@H](CCC(=O)O)C(=O)N[C@H](Cc1ccc(O)cc1)C(=O)N[C@H](CCC(=O)O)C(N)=O)[C@H](C)CC)NC(C)=O)C(=O)N[C@H](CCSC)C(=O)N[C@H](Cc1ccccc1)C(=O)N[C@H](Cc1c[nH]c2ccccc12)C(=O)N[C@H](Cc1ccc(O)cc1)C(=O)N[C@H](CC(=O)O)C(=O)N[C@H](CCC(=O)O)C(=O)N[C@H](Cc1ccc(O)cc1)C(=O)N[C@H](CCC(=O)O)C(N)=O [Peptide B04, Disulphide-Dimer(Ac-cimfwydeye-NH2)2] (I: Ac-[dC][dI][dM][dF][dW][dY][dD][dE][dY][dE]-NH2 / II: Ac-[dC][dI][dM][dF][dW][dY][dD][dE][dY][dE]-NH2; disulfide I:1-II:1) |  |  |  |  | 13.3 mU/ml | 0.7 nM | BLS (BLS = below lowest standard.) | BLS (BLS = below lowest standard.) | possess activity |  |  | 5.0 mU/ml | 1.6 mU/ml | positively affected | Peak IIa FEIBA EU (FVIII inhibited plasma; peptide 16 μM): BLS (BLS = below lowest standard.); Peak IIa FVIIa EU (FVIII inhibited plasma; peptide 16 μM): 0.1 nM; Peak Time FEIBA EU (FVIII inhibited plasma; peptide 16 μM): BLS (BLS = below lowest standard.); Peak Time FVIIa EU (FVIII inhibited plasma; peptide 16 μM): BLS (BLS = below lowest standard.); Peak IIa FEIBA EU (FVIII inhibited plasma; peptide 40 μM): 12.8 mU/ml; Peak IIa FVIIa EU (FVIII inhibited plasma; peptide 40 μM): 0.6 nM; Peak Time FEIBA EU (FVIII inhibited plasma; peptide 40 μM): BLS (BLS = below lowest standard.); Peak Time FVIIa EU (FVIII inhibited plasma; peptide 40 μM): BLS (BLS = below lowest standard.); Peak IIa FVIII EU (FVIII deficient plasma; peptide 16 μM): 4.4 mU/ml; Peak Time FVIII EU (FVIII deficient plasma; peptide 16 μM): 4.1 mU/ml; Peak IIa FVIII EU (FVIII deficient plasma; peptide 40 μM): 4.8 mU/ml; Peak Time FVIII EU (FVIII deficient plasma; peptide 40 μM): 7.3 mU/ml
5 | Ac-WDLYFEIVW-ttds-K [Peptide A20] |  |  |  |  |  |  |  |  |  |  |  |  |  |  | Thrombin peak time given as FEIBA equivalent activity ([1]; peptide 6.25 μM): 391 mU/ml; Thrombin peak time given as FEIBA equivalent activity ([1]; peptide 12.5 μM): 501 mU/ml; Thrombin peak time given as FEIBA equivalent activity ([1]; peptide 25 μM): 597 mU/ml; Thrombin peak time given as FEIBA equivalent activity ([1]; peptide 50 μM): 873 mU/ml; Thrombin peak time given as FEIBA equivalent activity ([1]; peptide 100 μM): 1101 mU/ml; Activity in the Defined Intrinsic Thrombin Generation Assay ([1]; summary): possess activity
